According to ChEMBL document CHEMBL1201862, “PubChem BioAssay data set” (2004):
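Protocol summary: plate cells (96-well), add compound at 5 concentrations, incubate 48 h, interpolate endpoints linearly. GI50 is the concentration that inhibits growth by half.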 Activity calls are given as the source filed them. Rule as the data show it: active = GI50 up to about 1.1 µM and inactive = higher.

What was measured:
Test in all cases: DTP human tumour cell line panel, 48 h
786-0 = tested on: 786-0
A498 = tested on: A498
A549 = tested on: A549
ACHN = tested on: ACHN
BT-549 = tested on: BT-549
CAKI-1 = tested on: CAKI-1
CCRF-CEM = tested on: CCRF-CEM
COLO 205 = tested on: COLO 205
DLD-1 = tested on: DLD-1
DMS-114 = tested on: DMS-114
DMS-273 = tested on: DMS-273
DU-145 = tested on: DU-145
EKVX = tested on: EKVX
HCC 2998 = tested on: HCC 2998
HCT-116 = tested on: HCT-116
HCT-15 = tested on: HCT-15
HL-60 = tested on: HL-60
HOP-18 = tested on: HOP-18
HOP-62 = tested on: HOP-62
HOP-92 = tested on: HOP-92
HT-29 = tested on: HT-29
Hs-578T = tested on: Hs-578T
IGROV-1 = tested on: IGROV-1
K562 = tested on: K562
KM-20L2 = tested on: KM-20L2
KM12 = tested on: KM12
LOX IMVI = tested on: LOX IMVI
LXFL 529 = tested on: LXFL 529
M14 = tested on: M14
M19-MEL = tested on: M19-MEL
MCF7 = tested on: MCF7
MDA-MB-231 = tested on: MDA-MB-231
MDA-MB-435 = tested on: MDA-MB-435
MDA-N = tested on: MDA-N
MOLT-4 = tested on: MOLT-4
Malme-3M = tested on: Malme-3M
NCI-H226 = tested on: NCI-H226
NCI-H23 = tested on: NCI-H23
NCI-H460 = tested on: NCI-H460
NCI-H522 = tested on: NCI-H522
NCI/ADR-RES = tested on: NCI/ADR-RES
OVCAR-3 = tested on: OVCAR-3
OVCAR-4 = tested on: OVCAR-4
OVCAR-5 = tested on: OVCAR-5
OVCAR-8 = tested on: OVCAR-8
PC-3 = tested on: PC-3
RPMI-8226 = tested on: RPMI-8226
RXF 393 = tested on: RXF 393
SF-268 = tested on: SF-268
SF-295 = tested on: SF-295
SF-539 = tested on: SF-539
SK-MEL-28 = tested on: SK-MEL-28
SK-MEL-2 = tested on: SK-MEL-2
SK-MEL-5 = tested on: SK-MEL-5
SK-OV-3 = tested on: SK-OV-3
SN12C = tested on: SN12C
SNB-19 = tested on: SNB-19
SNB-75 = tested on: SNB-75
SNB-78 = tested on: SNB-78
SW-620 = tested on: SW-620
T47D = tested on: T47D
TK-10 = tested on: TK-10
U-251 = tested on: U-251
UACC-257 = tested on: UACC-257
UACC-62 = tested on: UACC-62
UO-31 = tested on: UO-31
XF498 = tested on: XF498

With `O=C(NP(=O)(N1CC1)N1CC1)c1cc(I)ccc1I` [DIIODBENZOTEPH] the GI50 (786-0) was 21.9 µM (inactive), the GI50 (A498) was 64.4 µM (inactive) and the GI50 (A549) was 23.6 µM (inactive). The GI50 (ACHN) was 6.05 µM (inactive), the GI50 (BT-549) was 53.7 µM (inactive) and the GI50 (CAKI-1) was > 22.3 µM (inactive). The GI50 (CCRF-CEM) was 4.86 µM (inactive), the GI50 (COLO 205) was > 91.4 µM (inactive) and the GI50 (DLD-1) was > 100 µM (inactive). The GI50 (DMS-114) was 19.9 µM (inactive), the GI50 (DMS-273) was 11.6 µM (inactive) and the GI50 (DU-145) was 15.6 µM (inactive). For the same compound, the GI50 (EKVX) was 78 µM (inactive), the GI50 (HCC 2998) was > 67.9 µM (inactive) and the GI50 (HCT-116) was 40.3 µM (inactive). The GI50 (HCT-15) was 69.3 µM, the GI50 (HL-60) was 5.06 µM (inactive) and the GI50 (HOP-18) was > 92.3 µM (inactive). For the same compound, the GI50 (HOP-62) was 19.1 µM (inactive), the GI50 (HOP-92) was 59.7 µM (inactive) and the GI50 (HT-29) was 62.7 µM (inactive). For the same compound, the GI50 (Hs-578T) was 98.9 µM (inactive), the GI50 (IGROV-1) was 40.6 µM (inactive) and the GI50 (K562) was 59 µM (inactive). The GI50 (KM-20L2) was > 100 µM (inactive), the GI50 (KM12) was > 91.2 µM (inactive) and the GI50 (LOX IMVI) was 12.4 µM (inactive). For the same compound, the GI50 (LXFL 529) was > 100 µM (inactive), the GI50 (M14) was 34.8 µM (inactive) and the GI50 (M19-MEL) was 58.9 µM (inactive). For the same compound, the GI50 (MCF7) was 38 µM (inactive), the GI50 (MDA-MB-231) was > 100 µM (inactive) and the GI50 (MDA-MB-435) was 32.3 µM (inactive). The GI50 (MDA-N) was > 73.6 µM (inactive), the GI50 (MOLT-4) was 5.58 µM (inactive) and the GI50 (Malme-3M) was 50.4 µM (inactive). The GI50 (NCI-H226) was 46.1 µM (inactive), the GI50 (NCI-H23) was 10.9 µM (inactive) and the GI50 (NCI-H460) was 3.72 µM (inactive). The GI50 (NCI-H522) was 27.3 µM (inactive), the GI50 (NCI/ADR-RES) was 23.3 µM (inactive) and the GI50 (OVCAR-3) was 36.6 µM (inactive). The GI50 (OVCAR-4) was 77.3 µM (inactive), the GI50 (OVCAR-5) was > 84.1 µM (inactive) and the GI50 (OVCAR-8) was 31.2 µM (inactive). The GI50 (PC-3) was > 67.3 µM (inactive), the GI50 (RPMI-8226) was 52.7 µM (inactive) and the GI50 (RXF 393) was 34.6 µM (inactive). For the same compound, the GI50 (SF-268) was 27.3 µM (inactive), the GI50 (SF-295) was 30 µM (inactive) and the GI50 (SF-539) was 23.9 µM (inactive). The GI50 (SK-MEL-28) was > 95.3 µM (inactive), the GI50 (SK-MEL-2) was 61 µM (inactive) and the GI50 (SK-MEL-5) was 43.1 µM (inactive). For the same compound, the GI50 (SK-OV-3) was 25.6 µM (inactive), the GI50 (SN12C) was 26.8 µM (inactive) and the GI50 (SNB-19) was 53.7 µM (inactive). For the same compound, the GI50 (SNB-75) was 37.9 µM (inactive), the GI50 (SNB-78) was > 100 µM (inactive) and the GI50 (SW-620) was 67.5 µM (inactive). For the same compound, the GI50 (T47D) was 22.9 µM (inactive), the GI50 (TK-10) was > 100 µM (inactive) and the GI50 (U-251) was 24.6 µM (inactive). For the same compound, the GI50 (UACC-257) was > 64.3 µM (inactive), the GI50 (UACC-62) was 10.4 µM (inactive) and the GI50 (UO-31) was 28.1 µM (inactive). For the same compound, the GI50 (XF498) was > 52.6 µM (inactive).
